Columns and labels:
[1] = target: T1, MR1 on human cell lines (Homo sapiens, UniProt Q95460); assay: MR1 surface expression on human cell lines after ligand incubation; format: cell-based; conditions: range of human cell lines, after incubation (not shown)
T1 construct: endogenous in cells
From the text: MR1 mRNA transcripts are present in different tissues and cell lines from mice and humans. […] In contrast, whether mouse tumor cell lines express MR1 has not previously been examined. […] Basally, the level of MR1 was almost undetectable on the surface of all tumor cell lines examined (FIG. 2D). […] The kinetics of MR1 upregulation on B16F10 cells was similar to what was previously reported for human C1R cells (B-cell lymphoblastoid cell line) (McWilliam et al., 2016). […] Next, the impact of up-regulation of MR1 on B16F10 or LWT1 prior to i.v injection to WT or MR1−/− mice on the number of lung metastases was assessed.

[2] = test system: NK cells; assay: Ex vivo NK cell effector function in tumor-bearing lungs (IFNγ, CD107a); set-up: species or system mouse
Experimental: FIG. 3. Upregulation of surface MR1 on tumor cells suppresses NK cell function through MAIT cells. (A) Schematic to analyze NK effector function in the lungs of C57BL/6 WT or MR1^−/− mice injected with 5-OP-RU-pulsed B16F10 or LWT1 cells. On day 5 relative to tumor inoculation, lungs were harvested from the indicated groups of mice (n=5-6/group) and stimulated with PMA/ionomycin plus protein transport inhibitors and NK cell effector function was assessed by flow cytometry. (B) Representative contour plots of IFNγ staining in NK cells (NKp46^+ NK1.1^+ TCRβ^− CD45.2^+) and (C) the proportion and MFI of IFNγ^+ NK cells amongst total NK cells in B16F10-bearing lungs. (D) Representative contour plots of CD107a staining in NK cells and (E) the proportion and MFI of CD107a^+ NK cells amongst total NK cells in B16F10 tumor-bearing lungs. (F) Representative contour plots of IFNγ staining in NK cells and (G) the proportion and MFI of IFNγ^+ NK cells amongst total NK cells in LWT1 tumor-bearing lungs. (H) Representative contour plots of CD107a staining in NK cells and (I) the proportion and MFI of CD107a^+ NK cells amongst total NK cells in the LWT1-bearing lungs. Data presented as mean±SEM. Significant differences between groups as indicated by crossbars were determined using a one-way ANOVA followed by Tukey's post-hoc test, *p<0.05, **p<0.01, ***p<0.001, ****p<0.0001.
FIG. 4. Upregulation of MR1 on B16F10 activates MAIT cells to suppress NK cell effector function through IL-17. (A) Schematic to analyze MAIT or NK cell effector function in the lungs of C57BL/6 WT or MR1^−/− mice injected with 5-OP-RU- or DMSO-stimulated B16F10 melanoma cells. On day 5 relative to tumor inoculation, lungs were harvested and stimulated with PMA/ionomycin plus protein transport inhibitors for 4 hours and MAIT or NK cell function was assessed by flow cytometry. (B) The proportion of CD69^+ MAIT cells amongst total MAIT cells (B220^− F4/80^− MR1-5-OP-RU tetramer^+ TCRβ^+) in naïve or tumor-bearing lungs. Data presented as mean±SEM. (C) Representative dot plot of IL-17 expression by MAIT cells. The (D) proportion of IL-17^+ MAIT cells amongst total MAIT cells in the lungs of naïve and tumor-bearing mice as indicated. Data presented as mean±SEM. (E) Representative dot plot of TNF expression by MAIT cells. The (F) proportion of TNF MAIT cells and (G) IFNγ^+ MAIT cells amongst total MAIT cells in the lungs of naïve and tumor-bearing mice as indicated. (H, I) On day 5 relative to tumor inoculation, lungs were harvested (n=6/group) and stimulated with PMA/ionomycin plus protein transport inhibitors for 3 hours and NK cell function was assessed by flow cytometry. The proportion of IFNγ^+ NK cells and CD107a^+ NK cells amongst total NK cells (NKp46^+ NK1.1^+ TCRβ^− CD45.2^+) in tumor-bearing C57BL/6 WT or IL-17^−/− mice. Data presented as mean±SEM. (J) Groups of WT or MR1^−/− mice (n=4-6/group) were injected i.v. with 1×10^5 B16F10 melanoma cells. In some groups, sorted MAIT cells (2×10^5 cells/mouse) from C57BL/6 WT or IL-17A^−/− mice were i.v. injected into the indicated groups of mice one day before tumor inoculation. On day 14 relative to tumor cell inoculation, lungs were harvested and the metastatic burden was quantified by counting colonies on the lung surface. Data presented as mean±SEM. Data pooled from two independent experiments for (B, D, F, G). Experiments were performed once for (H-K). Significant differences between groups as indicated by crossbars were determined using a one-way ANOVA followed by Tukey's post-hoc test (B, D, F, J), or a Mann-Whitney test (H, I), *p<0.05, **p<0.01, ***p<0.001, ****p<0.0001.
Single cell suspensions from lungs of the indicated groups were incubated in a 96-well U-bottom plate in complete RPMI 1640 media. Cells were incubated in the presence or absence of cell stimulation cocktail (PMA/ionomycin) plus protein transport inhibitors (Golgistop and Golgiplug) (1000 times dilution) for 3-4 hours as indicated. […]

T1 sequence (Q95460 23-341): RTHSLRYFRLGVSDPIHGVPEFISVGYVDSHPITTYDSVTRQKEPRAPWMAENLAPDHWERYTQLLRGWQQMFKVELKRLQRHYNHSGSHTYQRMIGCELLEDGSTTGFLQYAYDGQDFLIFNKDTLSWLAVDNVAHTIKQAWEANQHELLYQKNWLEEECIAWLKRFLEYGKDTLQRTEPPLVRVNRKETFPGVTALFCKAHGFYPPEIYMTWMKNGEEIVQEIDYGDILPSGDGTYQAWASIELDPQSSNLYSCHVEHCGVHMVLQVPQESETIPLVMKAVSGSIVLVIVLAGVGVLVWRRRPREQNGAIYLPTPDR

CC(=O)C=Nc1c(NC[C@H](O)[C@H](O)[C@H](O)CO)[nH]c(=O)[nH]c1=O [5-OP-RU]
MR1 expression [1]: became upregulated
proportions of IFNγ producing and CD107a expressing NK cells ([2]; IL-17A-/- mice, treated vs DMSO-treated B16F10, day 5): this reduction was not observed
NK cell effector function ([2]; MR1-/- mice that received treated LWT1): did not manifest
NK cell effector function ([2]; WT mice that received treated LWT1): suppression of NK cell effector function was observed
NK cell function ([2]; lungs of MR1-/- mice, treated vs DMSO-treated B16F10, day 5): not suppressed
proportions of NK cells producing IFNγ and MFI ([2]; lungs of WT mice bearing treated vs DMSO-treated B16F10, day 5): significantly decreased
proportions of NK cells expressing CD107a and expression levels ([2]; lungs of WT mice, treated vs DMSO-treated B16F10, day 5): significantly decreased

— patent publication US20220213198A1, “METHOD OF TREATMENT” (The Council of the Queensland Institute of Medical Research, priority 2019, published 2022)
